Laboratory results as given in patent US20240082219A1, “METHODS FOR AMELIORATING AND PREVENTING AGE-RELATED MUSCLE DEGENERATION” (NANJING NUTRABUILDING BIO-TECH CO., LTD., priority 2021, published 2024).

Columns and labels:
[1] = test system: skeletal muscles mitochondria; assay: ATP production, O2 consumption and P/O ratio in skeletal muscle mitochondria from treated mice; assay type: in vivo, C57BL/6J mice; conditions: isolated skeletal muscle mitochondria of old mice treated for 4 months, vs OM group
Experimental: (§1) The healthy and male C57BL/6J mice at 20 months of age (Old Mice, OM) and at 2 months of age (Young Mice, YM) were maintained under the barrier conditions in a temperature-controlled environment and fed a commercial mouse chow. They were divided into the following five groups: (1) non-supplement young mice group (YM, n=5); (2) non-supplement old mice group (OM, n=5); (3)L-Ergothioneine supplement group with low dosage (OM+5 mg/kg/day, n=5); (4) L-Ergothioneine supplement group with moderate dosage (OM+15 mg/kg/day, n=5); and(5) L-Ergothioneine supplement group with high dosage (OM+45 mg/kg/day, n=5). All mice were administered L-Ergothioneine for once daily by gavage in normal saline solution for 4 months. Mice were euthanized by CO2 inhalation followed by cervical dislocation at the end of study and skeletal muscles were excised for an immediate isolation of mitochondria. Extracting skeletal muscles mitochondria from mice to measure ATP production and O2 consumption. ATP production was measured using a luciferase/luciferin based system. O2 consumption was measured using optical spectra. The all data were analyzed to identify the L-Ergothioneine function for improving ATP production and O2 consumption. […] Statistical significance was determined using one-way ANOVA followed by Tukey's post hoc test (N=5, *P<0.05, **P<0.01, ***P<0.001 vs OM Group).

[2] = test system: C57BL/6J mice at 20 months of age (Old Mice, OM); assay: Forelimb grip strength (grip strength meter); assay type: in vivo; conditions: once daily by gavage for 4 months, vs OM group
Experimental: as §1, with “Forelimb grip strength” for “Extracting skeletal muscles mitochondria from mice to measure ATP production and O2 consumption. ATP production was measured using a luciferase/luciferin based system. O2 consumption was measured using optical spectra. The all data”, “using” for “to identify”, “rip strength meter (Bioseb, BIO-GS3) with mouse-specific wire grid (100×80 mm, angled 90° (vertical)), once per month during the study” for “L-Ergothioneine function for improving ATP production”, “at the end of the study.” for “O2 consumption.”

[3] = test system: C57BL/6J mice at 20 months of age (Old Mice, OM); assay: Tissue weights of soleus and gastrocnemius muscle, age-induced muscle loss; assay type: in vivo; conditions: after 4 months administration by gavage, vs OM group
Experimental: The healthy and male C57BL/6J mice at 20 months of age (Old Mice, OM) and at 2 months of age (Young Mice, YM) were maintained under the barrier conditions in a temperature-controlled environment and fed a commercial mouse chow. They were divided into the following five groups: (1) non-supplement young mice group (YM, n=5); (2) non-supplement old mice group (OM, n=5); (3)L-Ergothioneine supplement group with low dosage (OM+5 mg/kg/day, n=5); (4) L-Ergothioneine supplement group with moderate dosage (OM+15 mg/kg/day, n=5); and(5) L-Ergothioneine supplement group with high dosage (OM+45 mg/kg/day, n=5). All mice were administered L-Ergothioneine for once daily by gavage in normal saline solution for 4 months. Mice were euthanized by CO2 inhalation followed by cervical dislocation at the end of study and skeletal muscles were excised for an immediate isolation of mitochondria. FIGS. 1A-1D show the test results related to effect of EGT treatment on age-induced muscle loss in mice monthly, particularly regarding body weight measurement (FIG. 1A), lean mass ratio (FIG. 1B), tissue weights of soleus muscle (FIG. 1C), and tissue weights of gastrocnemius muscle (FIG. 1D). Statistical significance was determined using one-way ANOVA followed by Tukey's post hoc test (N=5, *P<0.05, **P<0.01, vs OM Group).

[4] = Body weight and body composition (lean mass ratio) of old mice; assay type: in vivo, C57BL/6J mice; conditions: old mice, 5, 15 or 45 mg/kg/day by gavage for 4 months, vs OM group
Experimental: The healthy and male C57BL/6J mice at 20 months of age (Old Mice, OM) and at 2 months of age (Young Mice, YM) were maintained under the barrier conditions in a temperature-controlled environment and fed a commercial mouse chow. They were divided into the following five groups: (1) non-supplement young mice group (YM, n=5); (2) non-supplement old mice group (OM, n=5); (3)L-Ergothioneine supplement group with low dosage (OM+5 mg/kg/day, n=5); (4) L-Ergothioneine supplement group with moderate dosage (OM+15 mg/kg/day, n=5); and(5) L-Ergothioneine supplement group with high dosage (OM+45 mg/kg/day, n=5). All mice were administered L-Ergothioneine for once daily by gavage in normal saline solution for 4 months. Mice were euthanized by CO2 inhalation followed by cervical dislocation at the end of study and skeletal muscles were excised for an immediate isolation of mitochondria. The bodyweight of C57BL/6 mice was recorded before treatment, once per week during the study, and at the end of the study. Body composition (lean mass ratio) of mice was analyzed using the (NM42-[…]-1 system, Suzhou Niumag) before treatment, once per month during the study, and at the end of the study. […] Statistical significance was determined using one-way ANOVA followed by Tukey's post hoc test (N=5, *P<0.05, **P<0.01, vs OM Group).

[5] = test system: C57BL/6J mice at 20 months of age (Old Mice, OM); assay: Motor coordination on rotating rod (Time to Fall); assay type: in vivo; conditions: once daily by gavage for 4 months, vs OM group
Experimental: The healthy and male C57BL/6J mice at 20 months of age (Old Mice, OM) and at 2 months of age (Young Mice, YM) were maintained under the barrier conditions in a temperature-controlled environment and fed a commercial mouse chow. They were divided into the following five groups: (1) non-supplement young mice group (YM, n=5); (2) non-supplement old mice group (OM, n=5); (3)L-Ergothioneine supplement group with low dosage (OM+5 mg/kg/day, n=5); (4) L-Ergothioneine supplement group with moderate dosage (OM+15 mg/kg/day, n=5); and(5) L-Ergothioneine supplement group with high dosage (OM+45 mg/kg/day, n=5). All mice were administered L-Ergothioneine for once daily by gavage in normal saline solution for 4 months. Mice were euthanized by CO2 inhalation followed by cervical dislocation at the end of study and skeletal muscles were excised for an immediate isolation of mitochondria. Motor coordination deficits were performed by placing the mouse on a rotating rod (Beijing Zhishuduobao, DB093) and measuring how long it takes before mice fall off the rod (Time to Fall (s)). […] Statistical significance was determined using one-way ANOVA followed by Tukey's post hoc test (N=5, *P<0.05, **P<0.01, vs OM Group).

## C[N+](C)(C)[C@@H](Cc1c[nH]c(=S)[nH]1)C(=O)[O-] [L-Ergothioneine]
[1]
  ATP synthesis: increase of ATP synthesis
  P/O ratio (ATP produced per O2 consumed): increase of ATP synthesis and P/O ratio
[2]
  forelimb grip strength: ameliorating and preventing the loss of muscle grip strength
[3]
  weight of the gastrocnemius muscle: prevented this reduction
  weight of the soleus muscle: prevented this reduction
[4]
  body composition (lean mass ratio): no significant difference
  body weight: no significant difference
[5]
  time on rotating rod (Time to Fall): prolong time of maintain on a rotating rod
